# According to patent US12582605B2, “Extended release formulations of cannabinoids” (Glatt GmbH, priority 2018, dated 2026):
# Tests used:
# [1] = oral administration; cited from earlier work
# [2] = Dissolution test, release of probucol (USP Type II paddle, purified water); type: physicochemical; conditions: after / through 24 hours
# Description: (§1) A dissolution test was conducted on the compositions using purified water, USP, as the dissolution medium in a dissolution volume of 900 ml. A USP Type II paddle apparatus was used to mix the dissolution medium at a paddle speed of 75 rpm. The bath temperature was 37° C., and a 10-μm porous filter was used to sample aliquots.
# as §1, with “Example Compositions D-H” for “the compositions”
# [3] = pH values ranging from 1.2 to 7.0; cited from earlier work
molecule,measurement,setting,value
"CCCCCc1cc(O)c2c(c1)OC(C)(C)[C@@H]1CCC(C)=C[C@@H]21 [THC, Δ9-tetrahydrocannabinol]",duration of action,[1],2 to 4 h
same,duration of psychoactive action,[1],4 to 6 h
Tween® 80,drug release (probucol),[2],88 % w/w
CCCCCCC(C)(C)c1cc(O)c2c(c1)OC(C)(C)C1CCC(=O)CC21 (stereo not shown) [nabilone],solubility in aqueous media,[3],less than 0.5 mg/L
